From patent publication US20110091570A1, “Compositions and Devices for Antisepsis and Anticoagulation” (priority 2008, published 2011)
Where “and” joins values, the source holds several entries; their conditions need not be identical. Identical values can stand only once.

Tests used:
[1] = tested on: Staphylococcus aureus (ATCC 25923); assay: Bactericidal activity of NCT without and with heparin (CFU counts); assay type: cell-based
Procedure: FIG. 1 presents a plot of bactericidal activity of 1% NCT without and with 125 IE/mL heparin against Staphylococcus aureus ATCC 25923 at pH 7.1 and 37° C. Mean values standard error of the mean of three independent experiments. P>0.05 between NCT without and NCT with heparin.
NCT was dissolved in 0.1 M phosphate buffer containing either 125 IE/mL heparin or no heparin. The final NCT concentration was 1%. Various bacterial species were grown in tryptic soy broth overnight, were washed twice in saline and then suspended in the NCT and NCT/heparin solutions. The species were Staphylococcus aureus (ATCC 25923), Escherichia coli (ATCC 11229), Streptococcus pyogenes, Staphylococcus epidermidis, Pseudomonas aeruginosa, Proteus mirabilis, and methicillin-resistant Staphylococcus aureus. Controls were performed with the foregoing bacterial species suspended in 0.1 M phosphate buffer without additives and in 0.1 M phosphate buffer containing 125 IE/mL heparin. All of the solutions were incubated at 37° C. and pH 7.1. After 1, 3, 5, 8, and 10 minutes, aliquots of 100 μL were removed and diluted 10-fold or 100-fold in 0.6% sodium thiosulfate solution to inactivate the NCT. Aliquots (50 μL) of these dilutions were spread on tryptic soy agar plates. The plates were incubated at 37° C. and colony forming units of bacteria were counted after 24 and 48 hours. […]

[2] = tested on: methicillin-resistant Staphylococcus aureus; assay: as above; assay type: cell-based
[3] = tested on: Candida albicans, CBS 5982; assay: Fungicidal activity of NCT without and with heparin (CFU counts); assay type: cell-based; conditions: 1% NCT, 125 IE/mL heparin, pH 7.1, 37° C., 30-120 min
Procedure: FIG. 9 presents a plot of fungicidal activity of 1% NCT without and with 125 IE/mL heparin against Candida albicans (CBS 5982) at pH 7.1 and 37° C. Mean values±standard error of the mean of three independent experiments. P>0.05 between NCT without and NCT with heparin.
NCT was dissolved in 0.1 M phosphate buffer containing either 125 IE/mL heparin or no heparin. The final NCT concentration was 1%. Yeast (Candida albicans, CBS 5982) grown in tryptic soy broth overnight was washed twice in saline and then suspended in the NCT and NCT/heparin solutions. Controls were performed with the yeast suspended in 0.1 M phosphate buffer without additives and in 0.1 M phosphate buffer containing 125 IE/mL heparin. After incubation times of 30, 60, 90 and 120 minutes at 37° C. and pH 7.1, aliquots of 100 μL were removed and diluted tenfold or 100-fold in 0.6% sodium thiosulfate solution to inactivate the NCT. Aliquots (50 μL) of these dilutions were spread on tryptic soy agar plates. The plates were incubated at 37° C. and colony forming units of Candida albicans were counted after 24 and 48 hours. The assays were performed three times serially and the mean count was reported (FIG. 9). […] Statistical analysis was performed by Student's paired t test and one way analysis of variance (P>0.05 between NCT without and NCT with heparin). […]

[4] = tested on: citrate blood; assay: Activated partial thromboplastin time (aPTT), Pathromtin SL test; assay type: biochemical, human; conditions: for aPTT / aPTT (sec): Example 6, single volunteer; for Activated partial thromboplastin time (aPTT) / Activated partial thromboplastin time (aPTT), mean value: Example 7; for Activated partial thromboplastin time (aPTT): individual subjects 1-11; for Activated partial thromboplastin time (aPTT), mean value: mean of 11 subjects
Procedure: (§1) Whole blood was taken from volunteers and enriched with trisodium citrate (0.3 mL of a 0.106 molar solution per 3 mL whole blood) (S-Monovette®, Sarstedt, Nümbrecht, Germany). Routine coagulation tests were performed on the following samples:
(§2) The following commercial coagulation tests were performed according to the prescription of the manufacturer: prothrombin time (PT) was determined using Thromborel® S test (Dade Behring GmbH, Marburg, Germany); activated partial thromboplastin time (aPTT) was determined using Pathromtin* SL test (Dade Behring GmbH, Marburg, Germany); and thrombin time (TT) was determined using BC Thrombin Reagent test (Dade Behring GmbH, Marburg, Germany).
(§3) Whole blood was taken from a single volunteer and enriched with trisodium citrate (0.3 mL of a 0.106 molar solution per 3 mL whole blood) (S-Monovette®, Sarstedt, Nümbrecht, Germany). Portions of 1.8 mL citrate blood were mixed with 0.2 mL NCT in 0.9% saline. The following final (after dilution in blood) NCT concentrations were tested separately: 1% (55 mM); 0.5% (27.5 mM); 0.25% (13.75 mM); 0.1% (5.5 mM); 0.05% (2.75 mM); 0.025% (1.375 mM); and 0.01% (0.55 mM). A control without NCT was performed in parallel. The following commercial coagulation tests were performed according to the prescription of the manufacturer: prothrombin time (PT) was determined using Thromborel® S test (Dade Behring GmbH, Marburg, Germany), activated partial thromboplastin time (aPTT) was determined using Pathromtin* SL test (Dade Behring GmbH, Marburg, Germany); thrombin time (TT) was determined using BC Thrombin Reagent test (Dade Behring GmbH, Marburg, Germany); and fibrinogen was determined using Multifibren* U test (Dade Behring GmbH, Marburg, Germany).
(§4) Whole blood was taken from 11 volunteers and enriched with trisodium citrate (0.3 mL of a 0.106 molar solution per 3 mL whole blood) (S-Monovette®, Sarstedt, Nümbrecht, Germany). Commercial coagulation tests (as described in Example 6) were performed with the following samples: […]

[5] = tested on: citrate blood; assay: Thrombin time (TT), BC Thrombin Reagent test; assay type: biochemical, human; conditions: for TT / TT (sec): Example 6, single volunteer; for Thrombin time (TT) / Thrombin time (TT), mean value: Example 7; for Thrombin time (TT): individual subjects; for Thrombin time (TT), mean value: mean of 11 subjects
Procedure: as §1, §2, §3, §4

[6] = tested on: citrate blood; assay: International normalized ratio (INR); assay type: biochemical, human; conditions: Example 7; for International normalized ratio (INR): individual subjects 1-11; for International normalized ratio (INR), mean value: mean of 11 subjects
Procedure: as §4

[7] = tested on: rabbit eyes; conditions: rabbit eyes [Ref. 13]; cited from earlier work
[8] = tested on: purulent coated crural ulcers; conditions: purulent coated crural ulcers [Ref. 17]; cited from earlier work
[9] = 0.1% NCT, virtually identical experiments
[10] = 1% NCT, 125 IE/mL heparin, pH 7.1, 37° C., 1-10 min
[11] = Example 5, 1% NCT final concentration in citrate blood

SMILES: O=S(=O)(O)CCNCl [NCT, N-chlorotaurine]
- influence of heparin on the killing of bacteria [1, 9]: no statistically significant influence of heparin on the killing of bacteria
- killing activity of NCT with vs without heparin [1, 10]: no difference in the killing activity
- influence of heparin on the killing of bacteria [2, 9]: no statistically significant influence of heparin on the killing of bacteria
- killing activity of NCT with vs without heparin [2, 10]: no difference in the killing activity
- killing activity of NCT without vs with heparin [3]: no statistically significant difference in the killing activity
- activated partial thromboplastin time [4, 11]: above the test limits
- aPTT ([4]; 0.01% (0.55 mM) NCT final): 30.6 s
- aPTT ([4]; 0.025% (1.375 mM) NCT final): 37.7 s
- aPTT ([4]; 0.05% (2.75 mM) NCT final): 71.3 s
- aPTT ([4]; 0.1% (5.5 mM) NCT final): 371.4 s
- aPTT (sec) ([4]; 0.25% (13.75 mM) NCT final): >limit
- aPTT (sec) ([4]; 0.5% (27.5 mM) NCT final): >limit
- aPTT (sec) ([4]; 1% (55 mM) NCT final): >limit
- Activated partial thromboplastin time (aPTT) ([4]; 0.01% NCT): 39 sec (2×) and 41 sec and 32 sec and 47 sec and 37 sec (2×) and 35 sec and 40 sec and 36 sec and 31 sec
- Activated partial thromboplastin time (aPTT), mean value ([4]; 0.01% NCT): 37.6 s
- Activated partial thromboplastin time (aPTT) ([4]; 0.025% NCT): 93 sec and 113 sec and 49 sec and 238 sec and 142 sec and 129 sec and 91 sec (2×) and 167 sec and 70 sec and 71 sec
- Activated partial thromboplastin time (aPTT), mean value ([4]; 0.025% NCT): 114.0 s
- thrombin time [5, 11]: above the test limits
- TT ([5]; 0.01% (0.55 mM) NCT final): 19.5 s
- TT ([5]; 0.025% (1.375 mM) NCT final): 26.6 s
- TT ([5]; 0.05% (2.75 mM) NCT final): 48.8 s
- TT ([5]; 0.1% (5.5 mM) NCT final): 92.2 s
- TT ([5]; 0.25% (13.75 mM) NCT final): 101.8 s
- TT (sec) ([5]; 0.5% (27.5 mM) NCT final): >limit
- TT (sec) ([5]; 1% (55 mM) NCT final): >limit
- Thrombin time (TT) ([5]; 0.01% NCT): 22 sec (5×) and 24 sec (2×) and 32 sec and 23 sec (3×)
- Thrombin time (TT), mean value ([5]; 0.01% NCT): 23.5 s
- Thrombin time (TT) ([5]; 0.025% NCT): 44 sec (2×) and 39 sec and 59 sec and 43 sec and 52 sec and 55 sec and 48 sec and 40 sec and 45 sec and 35 sec
- Thrombin time (TT), mean value ([5]; 0.025% NCT): 45.8 s
- International normalized ratio (INR) ([6]; 0.01% NCT): 1.2 (5×) and 1.3 (3×) and 1.1 (3×)
- International normalized ratio (INR), mean value ([6]; 0.01% NCT): 1.2
- International normalized ratio (INR) ([6]; 0.025% NCT): 2.6 and 3.3 (2×) and 1.5 and 6 and 4.2 and 2.8 and 4.4 and 2 and 2.9 and 2.3
- International normalized ratio (INR), mean value ([6]; 0.025% NCT): 3.2
- tolerability in topical and localized applications [7]: relatively safe and well-tolerated
- pain and toxicity versus chloramine T [8]: significantly less pain and was less toxic than chloramine T
